Data from patent US5254572A, “Method and composition for supplementing vitamin B6 where the PN-PLP pathway is disturbed” (priority 1989, dated 1993).
Where “and” joins values, the source holds several entries; their conditions need not be identical. Equal values may be shown once. Entries after “also recorded” stand apart in the source; their conditions may differ.

Tests used:
[1] = Plasma PLP increment in critically ill patients on hyperalimentation and additional PN / alleviation of B6 depletion; format: in vivo
From the text: A direct inverse correlation exists between the degree of B6 depletion of critically ill patients and their chances of survival. Medical and surgical complication such as shock, hepatic failure, infection and sepsis, wound dehiscence, incisional hernia, aminoglycoside induced renal failure and impaired skin and mucosal regeneration, hematopoiesis, hormone production and wound repair; multi-organ dysfunction, respiratory distress and also severe depression are substantially more frequent in B6 deficient patients. These conditions are, inter alia, causally related to impairment of immune function, collagen and elastin cross-linking and polyamine synthesis and accumulation. […] However, the correctness or otherwise of any explanations given or mechanisms postulated is not to limit the scope of the invention or to be relevant to the inventive merits of the invention as claimed.

[2] = tested on: estrogen side effects (tryptophane metabolism); assay: Counteracting side effects of elevated estrogen (PMS, OC users); format: in vivo, patients
[3] = tested on: PN-oxidase deficiency; assay: Response of patients with reduced PN-oxidase activity; format: in vivo
[4] = tested on: anemia / haemoglobin formation; assay: Treatment of anemias; format: in vivo, patients; settings: cases where conventional therapy is ineffective, pyridoxine refractory anaemias
[5] = tested on: Babesia canis; assay: Example 4: clinical trials on dogs with B. canis infection; format: in vivo
Method: Babesia canis infection, better known as "biliary fever", is a severe and frequently fatal disease in dogs. It is a protozoal disease involving large-scale destruction of erythrocytes (red blood cells) and loss of haemoglobin. Double blind trials were carried out on two groups of dogs presented to the clinic for treatment of severe B. canis infections. Upon admission, all animals were recumbent with fever, jaundice, and accelerated heart and respiratory rate. All animals were given standard treatment, which consisted of post surgical drip, doxycycline, trypan blue, hepavet, electrolytes and glucose. In the experimental group, a solution of PL was added to the drip (electrolytes, glucose) given to the animals. In the control group, saline was given to replace the PL solution.
The PL solution according to the invention was made up as follows (per vial):
Experimental animals: PL solution according to the invention was given with the drip in such a manner that each patient received 50mg of pyridoxal over a 12 h period. Each animal received only one such course of treatment.
These received saline instead of PL solution under similar conditions. Control animals were selected to resemble experimental animals as closely as possible in respect of race and initial haemoglobin concentration.
**E: denotes experimental animals C: denotes controls, E: denotes changes
per day during the period between the first two series of measurements of
the parameters listed. Normally these represent measurements obtained
immediately after admission (or 1 day later) and again 2 to 4 days later
after treatment has been started.
***Average changes for six animals in each group over the two periods of […]

[6] = tested on: Babesia canis; assay: Example 4: further clinical trials on dogs with B-canis infection; format: in vivo
From the text: The experiment was repeated with 13 dogs (10 inbred beagles and 3 other mongrels) randomly divided into an experimental and a control group. All animals were infected with Babesia canis by injection of blood from a splenectomised donor dog which led to the development of acute Babesiosis in approximately 3-5 days. All dogs were monitored twice daily until the haematocrit values fell to 0.15 l/l when treatment was started which in the case of all animals consisted of the following:
Electrolytes solution (number 2) for the first […], thereafter Post-Surgisol. Both fluids were administered by means of an intravenous jugular catheter at a rate of 80 ml/kg/24h.
Trypan blue (1%) 1 ml/kg intravenous once only. Berenil 3.5 mg/kg intramuscularly 7 days after the Trypan blue. Heparin, 25 IU/kg subcutaneously three times per day for the first 2 days.
Experimental animals, in addition, received pyridoxal in their infusions at a concentration of 50 mg/l for the entire duration of fluid therapy.
Before the start of treatment, a urine dipstick and sediment examination were performed as well as a complete clinical evaluation and faecal flotation to determine the presence of helminth ova.
Assessment: Temperature pulse and respiration were measured every 6 hours during the first 3 days and a subjective assessment of habitus (grade 1-4) and appetite (1-4) was also made at the same time.
Full haematological and biochemical assessment was performed daily.
Serum alkaline phosphatase determinations were made on days 1 and 3.
Additional trial parameters and measurements consisted of Astrup determinations (before treatment and again 24 hours later) and a ten day survival rate.
Samples for haematology were drawn in evacuated EDTA tubes and for serum chemistries into plain evacuated tubes (cephalic vein).
Plasma PLP and PL as well as RBC-PLP and PL values were determined by means of a HPLC procedure routinely used for human studies.

[7] = tested on: E. Coli induced septic shock; assay: Protective effect in experimentally induced septic shock; format: in vivo, rats
Method: An E. Coli suspension was prepared and serially diluted to the point where an injection of 0.3 ml caused approximately 80% mortality in rats after 12 h. This solution was used as the challenging solution in the following experiment:
Two groups of 6 male rats each were used. The animals were carefully selected so that the average mass in both groups was 210 g (191-219 g in the control group; 194-224 g in the experimental group). A solution containing 43.8 mg/ml of pyridoxal was prepared for i/v and i/p injection. 0.8 ml of this solution afforded 1.0 m mol/kg of PL when injected into a 210 g rat.
At time 0 h, the control group received 0.3 ml saline and the experimental group 0.3 ml of the PL solution. After 1 h all animals in both groups were challenged with 0.3 ml i/v of the E. Coli suspension. Immediately thereafter, the control group received 0.5 ml saline and the experimental group 0.5 ml of the PL solution i/p.
Each entry represents 1 animal, 12 h denoting that the particular animal survived for the full observation period of 12 h. Other entries denote mortalities at the times indicated, e.g. 2 h inspection (all animals were inspected at 1 h intervals and mortalities counted).

[8] = tested on: fibroblast cell cultures; assay: Example 27: cellular uptake in fibroblast cell cultures, intracellular PLP content; format: cell-based
Method: Fibroblast cell cultures were cultivated in the usual manner in a medium containing different concentrations of various B6 vitamers, and the intracellular […] content was determined.
When the extracellular PL concentration was 60 nM, intracellular PLP levels reached a concentration of 12 nmol/g cell protein. […] Moreover, when both PN and PL were included in the medium, intracellular PLP accumulation was decreased in comparison with PLP accumulation seen when PL alone (in equimolecular concentrations)was included in the medium.

[9] = experimental animals or humans; cited from earlier work
[10] = tested on: lipid metabolism; settings: experimental animals; German patent application P37 05 549.6; cited from earlier work
[11] = compared with PN; cited from earlier work
[12] = tested on: PLP-phosphatases in red blood cells; assay: Inhibition of PLP-specific phosphatases of red blood cells; format: biochemical
[13] = tested on: PNP-oxidase in bone marrow aspirate; assay: Conversion of pyridoxine by bone marrow aspirate (PNP-oxidase activity); format: cell-based; settings: immature cells
Method: To confirm the inability of immature cells to convert pyridoxine into pyridoxal and its phosphate, an aspirate of bone marrow was tested.

[14] = tested on: glutamate-pyruvate-transaminase (GPT); assay: RBC GPT-activity before and after daily oral PN supplementation; format: in vivo, human; settings: RBC GPT-activity at day 0 and day 28, daily oral PN (10 mg)
From the text: The enzyme glutamate-pyruvate-transaminase (GPT) is a PLP dependent enzyme present in RBC which can be used to assess the utilisation of PN by RBC. In the population, individuals may be divided into 3 different groups corresponding to 3 polymorphic forms of the enzyme (1-1, 25%; 1-2, 50%; 2-2, 25%.

[15] = man; cited from earlier work
[16] = tested on: estrogen side effects (tryptophane metabolism); settings: cited from earlier work
[17] = tested on: anemia / haemoglobin formation; settings: 50-200 mg PN/day, one case 600 mg/day; Merrill and Henderson; cited from earlier work
[18] = tested on: albumin; settings: plasma; cited from earlier work
[19] = average change for six experimental animals
[20] = change per day, individual animal, 50 mg pyridoxal over 12 h with drip
[21] = change per day, total of experimental group
[22] = patients destined to die, hyperalimentation and additional PN, even with 200mg/day

For `Cc1ncc(CO)c(C=O)c1O` [PL, pyridoxal], the “effectiveness to counteract B6 depletion” value ([1]; compared with PN, also patients who do not respond to PN) was “substantially more effective than PN”, the “effectiveness / effective dosage rate against side effects of estrogen” value ([2]; supplementation, particularly over prolonged periods, compared with pyridoxine) was “effective at dosage rates as low as a few mg/day; also recorded: far more effective” and the “response compared with PN” value [3] was “respond much more satisfactorily”. The “stimulation of haemoglobin formation” value [4] was “capable of stimulating the formation of haemoglobulin”, the “Hb change, average” value [5, 19] was 11.7 g/L and the “MCHC change, average” value [5, 19] was -0.03 g/dlRC. For the same molecule, the “MCV change, average” value [5, 19] was 0.17 fL, the “RCC change, average” value [5, 19] was 4.4e+11 L⁻¹ and the “WCC change, average” value [5, 19] was 4.52e+09 L⁻¹. For the same molecule, the “Hb (haemoglobin) change” value [5, 20] was 11.0 g/L and 12.8 g/L and 6.5 g/L and 9.5 g/L and 7.8 g/L and 24.8 g/L, the “MCHC (mean corpuscular haemoglobin content) change” value [5, 20] was 3.8 g/dlRC and -1 g/dlRC and -2.5 g/dlRC and -1.7 g/dlRC and -0.5 g/dlRC and 2.5 g/dlRC and the “MCV (mean corpuscular volume) change” value [5, 20] was -6 fL and 2 fL and 0 fL and 3 fL and 1 fL. The “RCC (red cell count) change” value [5, 20] was 4.1e+11 L⁻¹ and 4.9e+11 L⁻¹ and 4.7e+11 L⁻¹ and 2.3e+11 L⁻¹ and 6.4e+11 L⁻¹, the “WCC (white cell count) change” value [5, 20] was 3e+09 L⁻¹ and -8.4e+09 L⁻¹ and 2.5e+09 L⁻¹ and 3.1e+09 L⁻¹ and 1.05e+09 L⁻¹ and 1.79e+10 L⁻¹ and the “Hb change, total” value [5, 21] was 70 g/L. The “MCHC change, total” value [5, 21] was -8.2 g/dlRC, the “MCV change, total” value [5, 21] was 1 fL and the “RCC change, total” value [5, 21] was 2.65e+12 L⁻¹. The “WCC change, total” value [5, 21] was 2.715e+10 L⁻¹, the “recovery of haemoglobin levels” value ([5]; experimental animals) was “amazing recovery of haemoglobin levels” and the “haematological differences to control group (haemoglobin, RCC, WCC)” value ([5]; experimental vs control) was “Large, significant differences”. The mean corpuscular hemoglobin ([6]; day 5, experimental animals) was “statistically significantly increased”, the mean corpuscular volume ([6]; day 5, experimental animals) was “statistically significantly increased” and the clinical improvement ([6]; experimental group) was “definite clinical improvement”. For the same molecule, the deaths ([6]; experimental group, 50 mg/l in infusions, two died in control group) was “none”, the reticulocyte count response ([6]; experimental vs control) was “responded quicker” and the normablast count profile ([6]; first 3 days, continuous downward trend in controls) was “inverse trend”. The alkaline phosphatase values ([6]; serum, day 1 to day 3, decreased in controls) was “large increase”, the “difference in survival rate” value ([7]; PL-supplemented vs control, 12 h) was “statistically significant difference in survival rate” and the survival time ([7]; individual rat, 0.3 ml i/v 1 h before and 0.5 ml i/p after challenge, 12h = survived full period) was 1 h and 3 h (3×) and 12 h (2×). For the same molecule, the “intracellular PLP level” value ([8]; extracellular PL concentration 60 nM) was 12 nmol/g cell protein, the “intracellular PLP level, maximum value” ([8]; extracellular PL concentration 600 nM) was 120 nmol/g cell protein and the cellular uptake ([8]; further increase of extracellular concentration) was “saturable process”. The “effect of extracellular vitamer on intracellular PLP level” value ([8]; relative effectiveness of PL and PN) was “more effective than PN”, the adverse effects [9] was “No adverse effects” and the lipid lowering effect [10] was “unexpectedly strong lipid lowering effects”. For the same molecule, the in vitro stability [11] was “far less stable”.

In the case of `NCCCNCCCCNCCCN` [spermine], the “inhibition of PLP-specific phosphatases” value [12] is reported as “inhibited”.

For `NCCCCNCCCN` [spermidine], the “inhibition of PLP-specific phosphatases” value [12] was “inhibited”.

For `Cc1ncc(CO)c(CN)c1O` [PM, pyridoxamine], the “response compared with PN” value [3] was “respond much more satisfactorily”.

For `Cc1ncc(CO)c(CO)c1O` [PN, pyridoxine], the “increment in plasma PLP, generally” value [1, 22] was “less than 10 nM”, the “increment in plasma PLP, occasionally” value [1, 22] was “less than 1 nM” and the “side effects at high bolus dosage” value ([2]; high dosage levels (e.g. 200-400 mg daily)) was “produces side effects”. The “conversion of pyridoxine into pyridoxal and its phosphate” value [13] was “incapable of converting PN into PLP or PL”, the “conversion of pyridoxine into pyridoxal and its phosphate” value ([13]; listed as pyridoxine) was “incapable of converting pyridoxine into pyridoxal” and the “slow responders among persons studied” value [14] was “Approximately 20%”. For the same molecule, the “rate of increase of intracellular PLP level” value ([8]; PN vs PL as extracellular source) was “increased much more slowly (and in a time dependent manner)”, the “effect of high concentrations on intracellular PLP accumulation” value ([8]; high concentrations of PN with PL) was “suppress intracellular PLP accumulation” and the plasma half-life [15] was “about 12 minutes”. The “dosage necessary for effect in PMS / estrogen side effects” value ([16]; bolus doses, daily) was 200 to 400 mg/day, the “effect on Tryp. metabolism and associated clinical symptoms” value ([16]; oral, OC users) was “repeatedly shown to normalise Tryp. metabolism” and the lipid lowering effect [10] was “only a weak lipid-lowering and regulating agent”. The “response rate in pyridoxine-responsive anemias” value [17] was “fewer than half of the cases”.

For `Cc1ncc(COP(=O)(O)O)c(C=O)c1O` [PLP, pyridoxal phosphate], the “accumulation of extracellular PLP by the cells” value [8] is given as “not accumulated by the cells”, the “radioactivity in the intracellular fraction” value ([8]; incubation with radioactive PLP) is given as “very little radioactivity” and the “protein (albumin) binding compared with PL” value [18] is given as “substantially more prone to becoming protein (albumin) bound than PL”.
